According to patent publication US11160750B2, “Composition and method for promoting hair growth” (ZivMas LLC, priority 2017, dated 2021):

What was measured:
DHT production = test: ELISA for DHT detection in male HFDP cells; assay type: cell-based, human; settings: 5 μM testosterone
Description: Dihydrotestosterone (DHT) detection was performed using the Aviva Systems Biology dihydrotestosterone ELISA kit (OKEH02531). The technique is based on a competitive binding enzyme immunoassay. 96 well plate has been pre-coated with an antibiotinylated dihydrotestosterone antibody. 50 μl of HFDP cells control and treated samples were added to the wells along with 50 μl of 1× dihydrotestosterone-Biotin complex. After incubation at 37° C. for 60 min wells were washed 3 times with 1× Wash buffer and was added to each well 100 μl of Avidin-HRP conjugate solution. Another step of incubation at 37° C. for 45 min and washing with 1× wash buffer was performed. 90 μl of TMB subtract was added and to each well followed by incubation in dark, 37° C. for 15-30 minutes. Finally, 50 μl of a stop solution was added and the quantification was determined by measuring the optical density at 450 nm in an enzyme-linked immunosorbent assay (Spark, Tecan) reader.

[1] = system: human follicle derma papilla cells (HFDP); test: Cell proliferation assay in HFDP cells; assay type: cell-based; settings: 0.5 ug/ml
Description: Adherent human cell lines were cultured according to standard mammalian tissue culture protocols and sterile technique. Human follicle derma papilla cells were cultured in human follicle dermal papilla cell growth medium, ready to use, low-serum. Keratinocyte cells (HaCaT) were cultured in high glucose Dulbecco's Modified Eagle Medium with 10% serum. Normal human […] cells such as HFF and BJ were culture in BIOAMF-2 complete medium (Biological industries). All media was supplemented with streptomycin ([…]), penicillin (100 U/ml) and Nystatin (12.5 U/ml). Cells were incubated in 5% CO2 at 37° C. All tissue culture were maintained in 25 cm^2 Nunc™ cell culture treated EasYFlask™ (Thermofisher scientific) and all the media and supplements were obtained from Biological Industries. Treatment were performed by plating cells in a Nunc™ 96 micro well delta surface plates (Thermofisher scientific) in a starting confluence of 0.5×10^4 cells/well. After 24 h of incubation the cells were treated with the ZM-26 composition.
Viability of the cells following treatment was determined using a commercially available MTT assay kit (ABCAM, ab146345) and performed according to manufacturer's instructions. […] The quantification was determined by measuring the optical density at 570 nm in an enzyme-linked immunosorbent assay (Spark, Tecan) reader. […]

Compound	DHT levels increase (DHT production) [fold]	cell viability after 48 h treatment [1]
C[C@]12CC[C@H]3[C@@H](CCC4=CC(=O)CC[C@@]43C)[C@@H]1CC[C@@H]2O [testosterone]	4.4	
Nc1cc(N2CCCCC2)nc(N)[n+]1[O-] [minoxidil]		caused cell death
